This assay has as its target IDH1 R132H (Homo sapiens, UniProt O75874, R132H). In words: Assay for IDH1 R132H inhibitors (NADPH/aKG, resazurin detection). It counts as biochemical. The conditions noted are these: enzyme assay of Example 12; read-out: IDH1R132H IC50. In short, it runs like this:
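Compound added to substrate mix (8 uM NADPH, 2 mM aKG), then enzyme mix (0.2 μg/ml IDH1 R132H); 50 min RT in 20 mM Tris pH 7.5, 150 mM NaCl, 10 mM MgCl2, 0.03% BSA. Resazurin detection mix (30 μM) 5 min RT; resorufin fluorescence Ex544/Em590.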
Background: The colour change of resazurin is a common sign of viable cells or microbes.

For orientation: pIC50 means the negative decadic logarithm of the IC50, by convention in mol/L.

Structures are written as SMILES. pIC50: −log10 of the molar value.

Chain of IDH1 R132H (O75874 whole entry R132H): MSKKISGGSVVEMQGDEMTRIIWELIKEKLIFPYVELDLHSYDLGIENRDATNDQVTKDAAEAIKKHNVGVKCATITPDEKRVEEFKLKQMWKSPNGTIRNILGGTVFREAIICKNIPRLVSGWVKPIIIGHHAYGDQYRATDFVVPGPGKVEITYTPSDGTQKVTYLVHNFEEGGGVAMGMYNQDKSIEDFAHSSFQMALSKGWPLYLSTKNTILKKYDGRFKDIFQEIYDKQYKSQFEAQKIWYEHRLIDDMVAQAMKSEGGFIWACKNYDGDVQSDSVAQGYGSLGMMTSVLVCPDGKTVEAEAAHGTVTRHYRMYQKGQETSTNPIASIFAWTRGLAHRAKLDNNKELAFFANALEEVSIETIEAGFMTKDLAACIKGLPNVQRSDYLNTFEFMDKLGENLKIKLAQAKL

On to `COCCC(=O)N1CCN(c2nc(C3CC3)c(OC(C)c3cccc(Cl)c3)cc2C#N)C[C@H]1C` (stereo partly drawn) [Compound 310, 5-(1-(3-chlorophenyl)ethoxy)-6-cyclopropyl-2-((R)-4-(3-methoxypropanoyl)-3-methylpiperazin-1-yl)nicotinonitrile], for which the negative-log IC50 (pIC50) is 6.00 to 6.30.
On to `COCCC(=O)N1CCN(c2nc(C3CC3)c(OC(C)c3ccc(Cl)cc3)cc2C#N)C[C@H]1C` (stereo partly drawn) [Compound 311, 5-(1-(4-chlorophenyl)ethoxy)-6-cyclopropyl-2-((R)-4-(3-methoxypropanoyl)-3-methylpiperazin-1-yl)nicotinonitrile], for which the negative-log IC50 (pIC50) was 6.00 to 6.30.
As to `COCCC(=O)N1CCN(c2nc(C3CC3)c(-c3ccc(N)nc3)cc2C#N)C[C@H]1C` [Compound 314, (R)-6′-amino-2-cyclopropyl-6-(4-(3-methoxypropanoyl)-3-methylpiperazin-1-yl)-3,3′-bipyridine-5-carbonitrile], the negative-log IC50 (pIC50) is 6.00 to 6.30.
As to `COCCC(=O)N1CCN(c2nc(C3CC3)c(-c3c(OC)cccc3OC)cc2C#N)C[C@H]1C` [Compound 316, (R)-6-cyclopropyl-5-(2,6-dimethoxyphenyl)-2-(4-(3-methoxypropanoyl)-3-methylpiperazin-1-yl)nicotinonitrile], the pIC50 is 6.00 to 6.30.
Then `COCCC(=O)N1CCN(c2nc(C3CC3)c(-c3ccc4[nH]cc(C(=O)C(F)(F)F)c4c3)cc2C#N)C[C@H]1C` [Compound 317, (R)-6-cyclopropyl-2-(4-(3-methoxypropanoyl)-3-methylpiperazin-1-yl)-5-(3-(2,2,2-trifluoroacetyl)-1H-indol-5-yl)nicotinonitrile], with 6.00 to 6.30.
To `COCCC(=O)N1CCN(c2nc(C3CC3)c(-c3cncc(C)c3)c(C)c2C#N)C[C@H]1C` [Compound 318] belongs above 6.30.
For the compound `COCCC(=O)N1CCN(c2nc(C3CC3)c(-c3ccc(S(C)(=O)=O)cc3)c(C)c2C#N)C[C@H]1C` [Compound 319, (R)-6-cyclopropyl-5-(4-methanesulfonyl-phenyl)-2-[4-(3-methoxy-propionyl)-3-methyl-piperazin-1-yl]-4-methyl-nicotinonitrile], the negative logarithm of the IC50 (pIC50) is above 6.30.
To `COCCC(=O)N1CCN(c2nc(C3CC3)c(-c3cccc(COC)c3)c(C)c2C#N)C[C@H]1C` [Compound 322, (R)-6-cyclopropyl-5-(3-methoxymethyl-phenyl)-2-[4-(3-methoxy-propionyl)-3-methyl-piperazin-1-yl]-4-methyl-nicotinonitrile] belongs above 6.30.
Then `COCCC(=O)N1CCN(c2nc(C3CC3)c(-c3cccc(OC)c3F)c(C)c2C#N)C[C@H]1C` [Compound 324, (R)-6-cyclopropyl-5-(2-fluoro-3-methoxy-phenyl)-2-[4-(3-methoxy-propionyl)-3-methyl-piperazin-1-yl]-4-methyl-nicotinonitrile], with 6.00 to 6.30.
On to `CNC(=O)c1cccc(-c2c(C3CC3)nc(N3CCN(C(=O)CCOC)[C@H](C)C3)c(C#N)c2C)c1` [Compound 327, (R)-3-{5-cyano-2-cyclopropyl-6-[4-(3-methoxy-propionyl)-3-methyl-piperazin-1-yl]-4-methyl-pyridin-3-yl}-N-methyl-benzamide], for which the negative logarithm of the IC50 (pIC50) is 6.00 to 6.30.
To `COCCC(=O)N1CCN(c2nc(C3CC3)c(-c3cccnc3OC)cc2C#N)C[C@H]1C` [Compound 328, (R)-2-cyclopropyl-2′-methoxy-6-[4-(3-methoxy-propionyl)-3-methyl-piperazin-1-yl]-[3,3]bipyridinyl-5-carbonitrile] belongs above 6.30; to `COCCC(=O)N1CCN(c2nc(C3CC3)c(-c3cccc(S(C)(=O)=O)c3)c(C)c2C#N)C[C@H]1C` [Compound 329, (R)-6-cyclopropyl-5-(3-methanesulfonyl-phenyl)-2-[4-(3-methoxy-propionyl)-3-methyl-piperazin-1-yl]-4-methyl-nicotinonitrile], 6.00 to 6.30.
With `CNS(=O)(=O)c1ccc(-c2c(C3CC3)nc(N3CCN(C(=O)CCOC)[C@H](C)C3)c(C#N)c2C)cc1` [Compound 331, (R)-4-{5-cyano-2-cyclopropyl-6-[4-(3-methoxy-propionyl)-3-methyl-piperazin-1-yl]-4-methyl-pyridin-3-yl}-N-methyl-benzenesulfonamide], the pIC50 was above 6.30.
For `COCCC(=O)N1CCN(c2nc(C3CC3)c(-c3cccc(C(=O)N4CCCC4)c3)c(C)c2C#N)C[C@H]1C` [Compound 332, (R)-6-cyclopropyl-2-[4-(3-methoxy-propionyl)-3-methyl-piperazin-1-yl]-4-methyl-5-[3-(pyrrolidine-1-carbonyl)-phenyl]-nicotinonitrile], the negative-log IC50 (pIC50) is 6.00 to 6.30.
To `COCCC(=O)N1CCN(c2nc(C3CC3)c(-c3ccc(C(=O)N4CCCC4)cc3)c(C)c2C#N)C[C@H]1C` [Compound 333, (R)-6-cyclopropyl-2-[4-(3-methoxy-propionyl)-3-methyl-piperazin-1-yl]-4-methyl-5-[4-(pyrrolidine-1-carbonyl)-phenyl]-nicotinonitrile] belongs above 6.30; to `CCc1ccccc1-c1cc(C#N)c(N2CCN(C(=O)CCOC)[C@H](C)C2)nc1C1CC1` [Compound 334, (R)-6-cyclopropyl-5-(2-ethyl-phenyl)-2-[4-(3-methoxy-propionyl)-3-methyl-piperazin-1-yl]-nicotinonitrile], 6.00 to 6.30; to `COCCC(=O)N1CCN(c2nc(C3CC3)c(-c3ccc(OCC4CC4)cc3)c(C)c2C#N)C[C@H]1C` [Compound 336, (R)-6-cyclopropyl-5-(4-cyclopropylmethoxy-phenyl)-2-[4-(3-methoxy-propionyl)-3-methyl-piperazin-1-yl]-4-methyl-nicotinonitrile], 6.00 to 6.30.
`CCCOc1ccc(-c2c(C3CC3)nc(N3CCN(C(=O)CCOC)[C@H](C)C3)c(C#N)c2C)cc1` [Compound 337, (R)-6-cyclopropyl-2-[4-(3-methoxy-propionyl)-3-methyl-piperazin-1-yl]-4-methyl-5-(4-propoxy-phenyl)-nicotinonitrile]: the pIC50 was 6.00 to 6.30.
Then `COCCC(=O)N1CCN(c2nc(C3CC3)c(-c3ccccc3CCOC)cc2C#N)C[C@H]1C` [Compound 338, (R)-6-cyclopropyl-5-[2-(2-methoxy-ethyl)-phenyl]-2-[4-(3-methoxy-propionyl)-3-methyl-piperazin-1-yl]-nicotinonitrile], with above 6.30; and `COCCC(=O)N1CCN(c2nc(C3CC3)c(Nc3cnc4ccccc4c3)cc2C#N)C[C@H]1C` [Compound 339, (R)-6-cyclopropyl-2-(4-(3-methoxypropanoyl)-3-methylpiperazin-1-yl)-5-(quinolin-3-ylamino)nicotinonitrile], with 6.00 to 6.30; and `COCCC(=O)N1CCN(c2nc(C3CC3)c(OCc3cccc(N)c3)cc2C#N)C[C@H]1C` [Compound 341], with above 6.30.
To `COCCC(=O)N1CCN(c2nc(C3CC3)c(-c3ccccc3CO)cc2C#N)C[C@H]1C` [Compound 344, (R)-6-cyclopropyl-5-(2-hydroxymethyl-phenyl)-2-[4-(3-methoxy-propionyl)-3-methyl-piperazin-1-yl]-nicotinonitrile] belongs 6.00 to 6.30; to `COCCC(=O)N1CCN(c2nc(C3CC3)c(-c3ccccc3COC)c(C)c2C#N)C[C@H]1C` [Compound 348, (R)-6-cyclopropyl-5-(2-methoxymethyl-phenyl)-2-[4-(3-methoxy-propionyl)-3-methyl-piperazin-1-yl]-4-methyl-nicotinonitrile], above 6.30; to `COCCC(=O)N1CCN(c2nc(C3CC3)c(-c3ccnn3C)c(C)c2C#N)C[C@H]1C` [Compound 349, (R)-6-cyclopropyl-2-[4-(3-methoxy-propionyl)-3-methyl-piperazin-1-yl]-4-methyl-5-(2-methyl-2H-pyrazol-3-yl)-nicotinonitrile], 6.00 to 6.30.
As to `COCCC(=O)N1CCN(c2nc(C3CC3)c(-c3ccc(N4CCOCC4)cc3)cc2C#N)C[C@H]1C` [Compound 354, (R)-6-cyclopropyl-2-[4-(3-methoxy-propionyl)-3-methyl-piperazin-1-yl]-5-(4-morpholin-4-yl-phenyl)-nicotinonitrile], the negative logarithm of the IC50 (pIC50) is 6.00 to 6.30.
As to `COCCC(=O)N1CCN(c2nc(C3CC3)c(Nc3ccc(F)cc3)cc2C#N)C[C@H]1C` [Compound 355, (R)-6-cyclopropyl-5-((4-fluorophenyl)amino)-2-(4-(3-methoxypropanoyl)-3-methylpiperazin-1-yl)nicotinonitrile], the negative-log IC50 (pIC50) was 6.00 to 6.30.
To `COCCC(=O)N1CCN(c2nc(C3CC3)c(-c3c(C)cccc3C)cc2C#N)C[C@H]1C` [Compound 357, (R)-6-cyclopropyl-5-(2,6-dimethyl-phenyl)-2-[4-(3-methoxy-propionyl)-3-methyl-piperazin-1-yl]-nicotinonitrile] belongs 6.00 to 6.30; to `COCCC(=O)N1CCN(c2nc(C3CC3)c(-c3cnn(Cc4ccccc4)c3)c(C)c2C#N)C[C@H]1C` [Compound 358, (R)-5-(1-benzyl-1H-pyrazol-4-yl)-6-cyclopropyl-2-[4-(3-methoxy-propionyl)-3-methyl-piperazin-1-yl]-4-methyl-nicotinonitrile], above 6.30.
To `CCc1ccccc1-c1c(C2CC2)nc(N2CCN(C(=O)CCOC)[C@H](C)C2)c(C#N)c1C` [Compound 359, (R)-6-cyclopropyl-5-(2-ethyl-phenyl)-2-[4-(3-methoxy-propionyl)-3-methyl-piperazin-1-yl]-4-methyl-nicotinonitrile] belongs above 6.30; to `COCCC(=O)N1CCN(c2nc(C3CC3)c(-c3cccc(N(C)C)c3)c(C)c2C#N)C[C@H]1C` [Compound 362, (R)-6-cyclopropyl-5-(3-dimethylamino-phenyl)-2-[4-(3-methoxy-propionyl)-3-methyl-piperazin-1-yl]-4-methyl-nicotinonitrile], above 6.30.
To `COCCC(=O)N1CCN(c2nc(C3CC3)c(N3CCN(C(C)=O)CC3)cc2C#N)C[C@H]1C` [Compound 368, (R)-5-(4-acetylpiperazin-1-yl)-6-cyclopropyl-2-(4-(3-methoxypropanoyl)-3-methylpiperazin-1-yl)nicotinonitrile] belongs 6.00 to 6.30.
